PubChem BioAssay AID1259411 (Chemical Carcinogenesis Research Information System (CCRIS), 2018)
Activity calls are given as the source filed them. How the calls were made is not given here.

Tested on: rodent carcinogenicity bioassays, tumor incidence
Test: CCRIS carcinogenicity studies
Method in brief: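 Archive of carcinogenicity, mutagenicity, tumor promotion and tumor inhibition results drawn from journals, NCI reports and other sources, expert-reviewed; covers 1985-2011 and is no longer updated.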

C=CC#N
carcinogen call (Species: HUMAN, Route: INHALATION, Tumor Site: Type of Lesion: LUNG, COLON): active; positive
carcinogen call (Species: MOUSE, Strain/Sex: B6C3F1/FEMALE, Route: GAVAGE, Dose: 0, 2.5, 10, 20 MG/KG 5D/WK FOR 104-105 WK (STUDY DURATION: 104-105 WK), Dose: 0, 2.5, 10, 20 MG/KG 5D/WK FOR 104-105 WK (STUDY DURATION: 104-105 WK), Tumor Site: Type of Lesion: FORESTOMACH: SQUAMOUS CELL PAPILLOMA, SQUAMOUS CELL CARCINOMA, SQUAMOUS CELL PAPILLOMA OR CARCINOMA, HARDERIAN GLAND: AD): active; positive
carcinogen call (Species: MOUSE, Strain/Sex: B6C3F1/FEMALE, Route: GAVAGE, Dose: 0, 2.5, 10, 20 MG/KG 5D/WK FOR 104-105 WK (STUDY DURATION: 104-105 WK), Dose: 0, 2.5, 10, 20 MG/KG 5D/WK FOR 104-105 WK (STUDY DURATION: 104-105 WK), Tumor Site: Type of Lesion: OVARY: MALIGNANT GRANULOSA CELL TUMOR, LUNG (ALVEOLAR/BRONCHIOLAR): ADENOMA OR CARCINOMA): equivocal
carcinogen call (Species: MOUSE, Strain/Sex: B6C3F1/FEMALE, Route: GAVAGE, Dose: 0, 2.5, 10, 20 MG/KG/D 5 D/WK FOR 105 WK (STUDY DURATION: 105 WK), Dose: 0, 2.5, 10, 20 MG/KG/D 5 D/WK FOR 105 WK (STUDY DURATION: 105 WK), Tumor Site: Type of Lesion: FORESTOMACH: SQUAMOUS CELL PAPILLOMA, SQUAMOUS CELL CARCINOMA, SQUAMOUS CELL PAPILLOMA OR CARCINOMA, EPITHELIAL HYPERPLA): active; positive
carcinogen call (Species: MOUSE, Strain/Sex: B6C3F1/MALE, Route: GAVAGE, Dose: 0, 2.5, 10, 20 MG/KG 5D/WK FOR 104-105 WK (STUDY DURATION: 104-105 WK), Dose: 0, 2.5, 10, 20 MG/KG 5D/WK FOR 104-105 WK (STUDY DURATION: 104-105 WK), Tumor Site: Type of Lesion: FORESTOMACH: SQUAMOUS CELL PAPILLOMA, SQUAMOUS CELL CARCINOMA, SQUAMOUS CELL PAPILLOMA OR CARCINOMA, HARDERIAN GLAND: AD): active; positive
carcinogen call (Species: MOUSE, Strain/Sex: B6C3F1/MALE, Route: GAVAGE, Dose: 0, 2.5, 10, 20 MG/KG/D 5 D/WK FOR 105 WK (STUDY DURATION: 105 WK), Dose: 0, 2.5, 10, 20 MG/KG/D 5 D/WK FOR 105 WK (STUDY DURATION: 105 WK), Tumor Site: Type of Lesion: FORESTOMACH: SQUAMOUS CELL PAPILLOMA, SQUAMOUS CELL CARCINOMA, SQUAMOUS CELL PAPILLOMA OR CARCINOMA, EPITHELIAL HYPERPLA): active; positive
carcinogen call (Species: RAT, Route: INHALATION, Tumor Site: Type of Lesion: MAMMARY GLAND, NERVOUS SYSTEM (CENTRAL), EAR (ZYMBAL GLAND), Tumor Site: Type of Lesion: MAMMARY GLAND, NERVOUS SYSTEM (CENTRAL), EAR (ZYMBAL GLAND)): active; positive
carcinogen call (Species: RAT, Route: ORAL, Tumor Site: Type of Lesion: FORESTOMACH, STOMACH, NERVOUS SYSTEM (CENTRAL), EAR (ZYMBAL GLAND), Tumor Site: Type of Lesion: FORESTOMACH, STOMACH, NERVOUS SYSTEM (CENTRAL), EAR (ZYMBAL GLAND)): active; positive
carcinogen call (Species: RAT, Strain/Sex: F344/FEMALE, Route: ORAL, Dose: 0, 1, 3, 10, 30, 100 PPM IN DRINKING WATER FOR LIFETIME (STUDY DURATION: 26 MO), Dose: 0, 1, 3, 10, 30, 100 PPM IN DRINKING WATER FOR LIFETIME (STUDY DURATION: 26 MO), Tumor Site: Type of Lesion: BRAIN: ASTROCYTOMA, ZYMBAL'S GLAND: SQUAMOUS CELL PAPILLOMA, ADENOMA/CARCINOMA, MAMMARY GLAND: FIBROADENOMA, FORESTOMAC, Tumor Site: Type of Lesion: BRAIN: ASTROCYTOMA, ZYMBAL'S GLAND: SQUAMOUS CELL PAPILLOMA, ADENOMA/CARCINOMA, MAMMARY GLAND: FIBROADENOMA, FORESTOMAC): active; positive
carcinogen call (Species: RAT, Strain/Sex: F344/MALE, Route: ORAL, Dose: 0, 1, 3, 10, 30, 100 PPM IN DRINKING WATER FOR LIFETIME (STUDY DURATION: 26 MO), Dose: 0, 1, 3, 10, 30, 100 PPM IN DRINKING WATER FOR LIFETIME (STUDY DURATION: 26 MO), Tumor Site: Type of Lesion: BRAIN: ASTROCYTOMA, SPINAL CORD: ASTROCYTOMA, ZYMBAL'S GLAND: SQUAMOUS CELL PAPILLOMA, ADENOMA/CARCINOMA, FORESTOMACH: S, Tumor Site: Type of Lesion: BRAIN: ASTROCYTOMA, SPINAL CORD: ASTROCYTOMA, ZYMBAL'S GLAND: SQUAMOUS CELL PAPILLOMA, ADENOMA/CARCINOMA, FORESTOMACH: S): active; positive
carcinogen call (Species: RAT, Strain/Sex: SPRAGUE-DAWLEY/FEMALE, Route: GAVAGE, Dose: 0, 0.1, 10 MG/KG/D 7D/WK FOR 20 MO (STUDY DURATION: 20 MO), Dose: 0, 0.1, 10 MG/KG/D 7D/WK FOR 20 MO (STUDY DURATION: 20 MO), Tumor Site: Type of Lesion: BRAIN: ASTROCYTOMA, ZYMBAL'S GLAND/EAR CANAL: CARCINOMA, FORESTOMACH: SQUAMOUS CELL PAPILLOMA/PAPILLOMA, SQUAMOUS CELL C, Tumor Site: Type of Lesion: BRAIN: ASTROCYTOMA, ZYMBAL'S GLAND/EAR CANAL: CARCINOMA, FORESTOMACH: SQUAMOUS CELL PAPILLOMA/PAPILLOMA, SQUAMOUS CELL C): active; positive
carcinogen call (Species: RAT, Strain/Sex: SPRAGUE-DAWLEY/FEMALE, Route: GAVAGE, Dose: 0, 5 MG/KG BW IN OLIVE OIL 3/WK FOR 52 WK (STUDY DURATION: LIFETIME), Tumor Site: Type of Lesion: [BRAIN WAS ONLY SITE EVALUATED]): inactive; negative
